The numbers were not newly measured in PubChem BioAssay AID1259409 (Chemical Carcinogenesis Research Information System (CCRIS), 2018), which cites them from elsewhere.

SMILES strings stand for the structures.

The data set relates to rodent chemically induced tumor inhibition, incidence and multiplicity. The experiment in a line: CCRIS tumor inhibitor studies. Particulars: Route [Inhibitor]: ORAL, Species: RAT.

For the molecule `CCC(=O)Oc1ccc(NC(=O)\C=C(C)/C=C/C=C(C)/C=C/C2=C(C)CCCC2(C)C)cc1`, the “tumour outcome (control, treated, inhibition, significance)” value runs as follows: (Carcinogen: L-AZASERINE, 115-02-6, Dose [Inhibitor]: 1 MMOL/KG DIET DAILY FOR 84 D FOLLOWED BY 0.5 MMOL/KG DIET FOR 276 D STARTING 1 WK AFTER COMPLETION OF CARCINOGEN TREATM, Strain/Sex: WISTAR-LEWIS/FEMALE, Target Tissue: Type of Lesion: PANCREAS: ADENOMA, Dose [Carcinogen]: 10 MG/KG BW 1/WK FOR 15 WK, Promoter: NONE USED) 50%, 17%, 66%, not significant; (Carcinogen: L-AZASERINE, 115-02-6, Dose [Inhibitor]: 1 MMOL/KG DIET DAILY FOR 84 D FOLLOWED BY 0.5 MMOL/KG DIET FOR 276 D STARTING 1 WK AFTER COMPLETION OF CARCINOGEN TREATM, Strain/Sex: WISTAR-LEWIS/FEMALE, Target Tissue: Type of Lesion: PANCREAS: CARCINOMA IN SITU, Dose [Carcinogen]: 10 MG/KG BW 1/WK FOR 15 WK, Promoter: NONE USED) 8%, 21%, -163%, not calculated; (Carcinogen: L-AZASERINE, 115-02-6, Dose [Inhibitor]: 1 MMOL/KG DIET DAILY FOR 84 D FOLLOWED BY 0.5 MMOL/KG DIET FOR 276 D STARTING 1 WK AFTER COMPLETION OF CARCINOGEN TREATM, Strain/Sex: WISTAR-LEWIS/FEMALE, Target Tissue: Type of Lesion: PANCREAS: CARCINOMA, Dose [Carcinogen]: 10 MG/KG BW 1/WK FOR 15 WK, Promoter: NONE USED) 13%, 0%, 100%, not significant; (Carcinogen: L-AZASERINE, 115-02-6, Dose [Inhibitor]: 1 MMOL/KG DIET DAILY FOR 84 D FOLLOWED BY 0.5 MMOL/KG DIET FOR 276 D STARTING 1 WK AFTER COMPLETION OF CARCINOGEN TREATM, Strain/Sex: WISTAR-LEWIS/FEMALE, Target Tissue: Type of Lesion: PANCREAS: NEOPLASM, Dose [Carcinogen]: 10 MG/KG BW 1/WK FOR 15 WK, Promoter: NONE USED) 71%, 38%, 46%, p<0.05; (Carcinogen: L-AZASERINE, 115-02-6, Dose [Inhibitor]: 1 MMOL/KG DIET DAILY FOR 84 D FOLLOWED BY 0.5 MMOL/KG DIET FOR 276 D STARTING 1 WK AFTER COMPLETION OF CARCINOGEN TREATM, Strain/Sex: WISTAR-LEWIS/MALE, Target Tissue: Type of Lesion: PANCREAS: ADENOMA, Dose [Carcinogen]: 10 MG/KG BW 1/WK FOR 15 WK, Promoter: NONE USED) 25%, 29%, -16%, not significant; (Carcinogen: L-AZASERINE, 115-02-6, Dose [Inhibitor]: 1 MMOL/KG DIET DAILY FOR 84 D FOLLOWED BY 0.5 MMOL/KG DIET FOR 276 D STARTING 1 WK AFTER COMPLETION OF CARCINOGEN TREATM, Strain/Sex: WISTAR-LEWIS/MALE, Target Tissue: Type of Lesion: PANCREAS: CARCINOMA IN SITU, Dose [Carcinogen]: 10 MG/KG BW 1/WK FOR 15 WK, Promoter: NONE USED) 29%, 42%, -45%, not significant. In addition, the “tumour outcome (control, treated, inhibition, significance)” value reads like this: (Carcinogen: L-AZASERINE, 115-02-6, Dose [Inhibitor]: 1 MMOL/KG DIET DAILY FOR 84 D FOLLOWED BY 0.5 MMOL/KG DIET FOR 276 D STARTING 1 WK AFTER COMPLETION OF CARCINOGEN TREATM, Strain/Sex: WISTAR-LEWIS/MALE, Target Tissue: Type of Lesion: PANCREAS: CARCINOMA, Dose [Carcinogen]: 10 MG/KG BW 1/WK FOR 15 WK, Promoter: NONE USED) 46%, 21%, 54%, p 0.06; (Carcinogen: L-AZASERINE, 115-02-6, Dose [Inhibitor]: 1 MMOL/KG DIET DAILY FOR 84 D FOLLOWED BY 0.5 MMOL/KG DIET FOR 276 D STARTING 1 WK AFTER COMPLETION OF CARCINOGEN TREATM, Strain/Sex: WISTAR-LEWIS/MALE, Target Tissue: Type of Lesion: PANCREAS: NEOPLASM, Dose [Carcinogen]: 10 MG/KG BW 1/WK FOR 15 WK, Promoter: NONE USED) 100%, 92%, 8%, not significant; (Carcinogen: L-AZASERINE, 115-02-6, Dose [Inhibitor]: 2 MMOL/KG DIET FOR 44 D, 1.5 MMOL FOR 26 D, 1 MMOL FOR 56 D AND 0.75 MMOL FOR 192 D STARTING 1 WK AFTER COMPLETION OF CA, Strain/Sex: WISTAR-LEWIS/FEMALE, Target Tissue: Type of Lesion: PANCREAS: ADENOMA, Dose [Carcinogen]: 10 MG/KG BW 1/WK FOR 15 WK, Promoter: NONE USED) 50%, 29%, 42%, not significant; (Carcinogen: L-AZASERINE, 115-02-6, Dose [Inhibitor]: 2 MMOL/KG DIET FOR 44 D, 1.5 MMOL FOR 26 D, 1 MMOL FOR 56 D AND 0.75 MMOL FOR 192 D STARTING 1 WK AFTER COMPLETION OF CA, Strain/Sex: WISTAR-LEWIS/FEMALE, Target Tissue: Type of Lesion: PANCREAS: CARCINOMA IN SITU, Dose [Carcinogen]: 10 MG/KG BW 1/WK FOR 15 WK, Promoter: NONE USED) 8%, 4%, 50%, not significant; (Carcinogen: L-AZASERINE, 115-02-6, Dose [Inhibitor]: 2 MMOL/KG DIET FOR 44 D, 1.5 MMOL FOR 26 D, 1 MMOL FOR 56 D AND 0.75 MMOL FOR 192 D STARTING 1 WK AFTER COMPLETION OF CA, Strain/Sex: WISTAR-LEWIS/FEMALE, Target Tissue: Type of Lesion: PANCREAS: CARCINOMA, Dose [Carcinogen]: 10 MG/KG BW 1/WK FOR 15 WK, Promoter: NONE USED) 13%, 4%, 70%, not significant; (Carcinogen: L-AZASERINE, 115-02-6, Dose [Inhibitor]: 2 MMOL/KG DIET FOR 44 D, 1.5 MMOL FOR 26 D, 1 MMOL FOR 56 D AND 0.75 MMOL FOR 192 D STARTING 1 WK AFTER COMPLETION OF CA, Strain/Sex: WISTAR-LEWIS/FEMALE, Target Tissue: Type of Lesion: PANCREAS: NEOPLASM, Dose [Carcinogen]: 10 MG/KG BW 1/WK FOR 15 WK, Promoter: NONE USED) 71%, 38%, 46%, p<0.05. Also, the “tumour outcome (control, treated, inhibition, significance)” value (Carcinogen: L-AZASERINE, 115-02-6, Dose [Inhibitor]: 2 MMOL/KG DIET FOR 44 D, 1.5 MMOL FOR 26 D, 1 MMOL FOR 56 D AND 0.75 MMOL FOR 192 D STARTING 1 WK AFTER COMPLETION OF CA, Strain/Sex: WISTAR-LEWIS/MALE, Target Tissue: Type of Lesion: PANCREAS: ADENOMA, Dose [Carcinogen]: 10 MG/KG BW 1/WK FOR 15 WK, Promoter: NONE USED) was 25%, 22%, 12%, not significant; the “tumour outcome (control, treated, inhibition, significance)” value (Carcinogen: L-AZASERINE, 115-02-6, Dose [Inhibitor]: 2 MMOL/KG DIET FOR 44 D, 1.5 MMOL FOR 26 D, 1 MMOL FOR 56 D AND 0.75 MMOL FOR 192 D STARTING 1 WK AFTER COMPLETION OF CA, Strain/Sex: WISTAR-LEWIS/MALE, Target Tissue: Type of Lesion: PANCREAS: CARCINOMA IN SITU, Dose [Carcinogen]: 10 MG/KG BW 1/WK FOR 15 WK, Promoter: NONE USED) is 29%, 43%, -48%, not significant; the “tumour outcome (control, treated, inhibition, significance)” value (Carcinogen: L-AZASERINE, 115-02-6, Dose [Inhibitor]: 2 MMOL/KG DIET FOR 44 D, 1.5 MMOL FOR 26 D, 1 MMOL FOR 56 D AND 0.75 MMOL FOR 192 D STARTING 1 WK AFTER COMPLETION OF CA, Strain/Sex: WISTAR-LEWIS/MALE, Target Tissue: Type of Lesion: PANCREAS: CARCINOMA, Dose [Carcinogen]: 10 MG/KG BW 1/WK FOR 15 WK, Promoter: NONE USED) is reported as 46%, 13%, 72%, p<0.05; the “tumour outcome (control, treated, inhibition, significance)” value (Carcinogen: L-AZASERINE, 115-02-6, Dose [Inhibitor]: 2 MMOL/KG DIET FOR 44 D, 1.5 MMOL FOR 26 D, 1 MMOL FOR 56 D AND 0.75 MMOL FOR 192 D STARTING 1 WK AFTER COMPLETION OF CA, Strain/Sex: WISTAR-LEWIS/MALE, Target Tissue: Type of Lesion: PANCREAS: NEOPLASM, Dose [Carcinogen]: 10 MG/KG BW 1/WK FOR 15 WK, Promoter: NONE USED) is recorded as 100%, 78%, 22%, not significant.
As to `N[C@@H](Cc1ccccc1)C(=O)O`, the “tumour outcome (control, treated, inhibition, significance)” value (Carcinogen: N-METHYL-N'-NITRO-N-NITROSOGUANIDINE, 70-25-7, Dose [Inhibitor]: 0, 6% IN DIET FOR 26 WK ADMINISTERED POST CARCINOGEN DOSE (STUDY DURATION: 52 WK ), Strain/Sex: WISTAR/MALE, Target Tissue: Type of Lesion: GLANDULAR STOMACH: ADENOCARCINOMA, Dose [Carcinogen]: 50 UG/ML DRINKING WATER FOR 26 WK) was 18/25 (72%), 9/25 (36%), 50%, not calculated.
